These results are taken from PubChem BioAssay AID1361 (SRMLSC, 2008).

The structures appear in SMILES notation. Calls of active or inactive are those of the source. No rule for the calls is given here.

A short description of this experiment: blockers of mitochondrial fusion, WT vs mutant – cell-based, chemical genetic, wild-type and mutant, confirmation (AID 1361). To be noted: Cell-based mitochondrial fusion phenotype, imaging.
Where [1] appears, read: mutant cells, measured here: mutant cell line IC50.

`N#Cc1sc2nc(N3CCCCC3)c3c(c2c1N)CCCC3`: the IC50 – broadly, the concentration that gives 50% inhibition – (WT cells) is 20.2 µM and the IC50 under setting [1] is greater than 25 µM.

As for `N#CC(c1ccc(Cl)cc1)(c1ncc(C(F)(F)F)cc1Cl)N1CCOCC1` (stereo unspecified), the IC50 (WT cells) is > 25 µM (inactive) and the IC50 under setting [1] is greater than 25 µM.

For the compound `COc1ccccc1C(=O)NC(=S)/C=C1/N(C)c2ccccc2C1(C)C`, the IC50 is, setting by setting: (WT cells) 10.8 µM; under setting [1], greater than 25 µM.

In the case of `CC(C)N=c1scc(-c2cccs2)n1/N=C/c1ccc(O)c(O)c1O`, the IC50 is, setting by setting: (WT cells) > 25 µM (inactive); under setting [1], greater than 25 µM.

As for `O=C(CSc1nnnn1-c1ccccc1)NCc1cccs1`, the IC50 (WT cells) was > 25 µM (inactive) and the IC50 under setting [1] was greater than 25 µM.

Regarding `COc1cc(CNn2cn[nH]c2=S)cc(Cl)c1OCc1ccc(F)cc1`, the IC50 (WT cells) is 21.2 µM and the IC50 under setting [1] was greater than 25 µM.

Turning to `CSc1nnc(C2CCNCC2)n1C`, the IC50 by setting is: (WT cells) > 25 µM (inactive); under setting [1], greater than 25 µM.

Take `c1ccc(-c2[nH]c(-c3ccccc3)[n+](CC3CO3)c2-c2ccccc2)cc1` (stereo unspecified): the IC50 is, setting by setting: (WT cells) 18.8 µM; under setting [1], greater than 25 µM.

For the compound `Cc1ccc(S(=O)(=O)Nc2ccc(N=Nc3ccc(O)cc3)cc2)cc1`, the half-inhibitory concentration (IC50) runs as follows: (WT cells) 17 µM; under setting [1], greater than 25 µM.

Take `CCOC(=O)c1cnc(SC)nc1Sc1cc(Cl)ccc1Cl`: the half-maximal inhibitory concentration (IC50) was 11.2 µM (WT cells) and 23.9 µM under setting [1].

Take `CCC(=O)N1CCN(c2ccccc2NC(=O)COc2cc(C)ccc2C(C)C)CC1`: the IC50 was > 25 µM (inactive) (WT cells) and greater than 25 µM under setting [1].

For `Cc1nc(N2CCCCC2)c2c(C)c(C(=O)Nc3ccccc3C(F)(F)F)sc2n1`, the IC50 reads like this: (WT cells) > 25 µM (inactive); under setting [1], greater than 25 µM.

In the case of `CC(=O)N1CCC(O)(c2cccc(C(F)(F)F)c2)CC1`, the IC50 is, setting by setting: (WT cells) > 25 µM (inactive); under setting [1], greater than 25 µM.

Consider `Nc1ccc2nc(CN3CCOCC3)[nH]c2c1`, for which the IC50 was > 25 µM (inactive) (WT cells) and greater than 25 µM under setting [1].

For the compound `COc1ccc(NC(=S)N(CCc2c(C)[nH]c3ccc(C)cc23)Cc2ccco2)cc1`, the half-maximal inhibitory concentration (IC50) by setting is: (WT cells) 8.8 µM; under setting [1], greater than 25 µM.

As for `CC(C)N1C(=S)SC(C)(C)C1n1oc(=O)n(-c2ccc(Cl)c(Cl)c2)c1=O` (stereo unspecified), the IC50 (WT cells) is > 25 µM (inactive) and the IC50 under setting [1] is greater than 25 µM.

For the compound `Cc1nn(C(C)(C)C)c(OC(=O)c2ccc3c(c2)OCO3)c1Sc1ccccc1`, the half-inhibitory concentration (IC50) is 8.28 µM (WT cells) and greater than 25 µM under setting [1].

For `O=C(COC(=O)c1ccc([N+](=O)[O-])s1)Nc1ncc(C(F)(F)F)cc1Cl`, the IC50 by setting is: (WT cells) 18.3 µM; under setting [1], greater than 25 µM.

As to `O=C(NC(=S)Nc1ccc(S(=O)(=O)NC2CCCCC2)cc1)c1cccs1`, the IC50 is 17.6 µM (WT cells) and greater than 25 µM under setting [1].

For the compound `NNC(=O)c1cc2c(N3CCC(Cc4ccccc4)CC3)ncnc2s1`, the IC50 is, setting by setting: (WT cells) 17.6 µM; under setting [1], greater than 25 µM.

As to `Oc1cccc(C(O)CNCc2ccc(OCc3ccc(Cl)cc3Cl)cc2)c1` (stereo unspecified), the IC50 was 15 µM (WT cells) and 17.2 µM under setting [1].

Turning to `CC(C)C1OC(c2cccc(NC(=O)c3cccs3)c2)OCC1(C)C` (stereo unspecified), the IC50 is > 25 µM (inactive) (WT cells) and greater than 25 µM under setting [1].

For the compound `CCOC(=O)c1c(C)[nH]c(C)c1C(=O)COC(=O)/C=C/c1cccc(C(F)(F)F)c1`, the IC50 is, setting by setting: (WT cells) 20.6 µM; under setting [1], greater than 25 µM.

Regarding `O=C(c1cc(-c2ccccc2)nc2ccccc12)N1CCCc2ccccc21`, the concentration for half-maximal inhibition (IC50) was 13.7 µM (WT cells) and greater than 25 µM under setting [1].

On to `Cc1ccc(S(=O)(=O)n2c3ccc(Cl)cc3c3nc(C)sc32)cc1`, for which the IC50 reads like this: (WT cells) 9.63 µM; under setting [1], greater than 25 µM.

For the compound `O=C(OC(c1ccc(NS(=O)(=O)c2ccccc2)cc1)(C(F)(F)F)C(F)(F)F)c1ccccc1`, the IC50 was 18.2 µM (WT cells) and greater than 25 µM under setting [1].

As for `O=C(Cc1ccc(Cl)cc1)Nc1ccccc1CO`, the IC50 (WT cells) is > 25 µM (inactive) and the IC50 under setting [1] is greater than 25 µM.

For `CCCOc1ccc(C2C(C(=O)c3ccco3)=C(O)C(=O)N2CCN2CCOCC2)cc1OC` (stereo unspecified), the IC50 (WT cells) was > 25 µM (inactive) and the IC50 under setting [1] is greater than 25 µM.

In the case of `CC1=C(C#N)C(NC(=O)c2ccc(C)cc2)(C(F)(F)F)C(=O)N1` (stereo unspecified), the IC50 was > 25 µM (inactive) (WT cells) and greater than 25 µM under setting [1].

In the case of `O=C(Nc1nnc(C2CC2)o1)c1ccc(S(=O)(=O)N2CCCc3ccccc32)cc1`, the IC50 is, setting by setting: (WT cells) 13.5 µM; under setting [1], 20.8 µM.

As to `COC(=O)c1cn(C(=O)OC)c2ccccc12`, the IC50 reads like this: (WT cells) > 25 µM (inactive); under setting [1], greater than 25 µM.

With `CCC(C)c1ccc(NC(=O)COc2c(F)c(F)c(C(F)(F)F)c(F)c2F)cc1` (stereo unspecified), the IC50 by setting is: (WT cells) 8.03 µM; under setting [1], greater than 25 µM.

In the case of `O=C1c2ccccc2OC2(C=Cc3ccccc3O2)N1Cc1ccccc1` (stereo unspecified), the half-inhibitory concentration (IC50) was 5.8 µM (WT cells) and greater than 25 µM under setting [1].

Turning to `COC(=O)c1c(NC(=O)CN2CCC3(O)CCCCC3C2c2ccccc2OC)sc(C)c1C` (stereo unspecified), the IC50 is 10.4 µM (WT cells) and greater than 25 µM under setting [1].

Take `O=C(Nc1ccccc1Sc1ccccc1)c1ccc(F)cc1`: the IC50 (WT cells) was > 25 µM (inactive) and the IC50 under setting [1] is greater than 25 µM.

As to `Cc1nc(=O)c(-c2ccccc2)c(C)n1CCCCCC(=O)O`, the IC50 is, setting by setting: (WT cells) > 25 µM (inactive); under setting [1], greater than 25 µM.

Take `CC(=O)Oc1ccc(N(C(C)=O)S(=O)(=O)c2cccs2)cc1`: the IC50 was > 25 µM (inactive) (WT cells) and greater than 25 µM under setting [1].

With `c1ccc(-c2nnc(CSc3nnc(-c4ccncc4)n3Cc3ccco3)o2)cc1`, the IC50 is, setting by setting: (WT cells) > 25 µM (inactive); under setting [1], greater than 25 µM.

As to `CCc1nn(C(C)C(=O)NCCN2CCN(c3cccc(C)c3C)CC2)c(=O)c2cc3occc3n12` (stereo unspecified), the IC50 was > 25 µM (inactive) (WT cells) and greater than 25 µM under setting [1].

With `CSc1ccc(OC2CCCCC2NS(=O)(=O)c2ccc(Cl)cc2)cc1` (stereo unspecified), the 50% inhibitory concentration (IC50) is 16.2 µM (WT cells) and greater than 25 µM under setting [1].

Regarding `COC(=O)Nc1snnc1C`, the IC50 is > 25 µM (inactive) (WT cells) and greater than 25 µM under setting [1].

With `COC(=O)C1CCN(C(=O)c2cc(OC)c(OC)c(OC)c2)CC1`, the IC50 is, setting by setting: (WT cells) > 25 µM (inactive); under setting [1], greater than 25 µM.

`N#CC(C#N)=c1ccc2c(c1)N1C3=C(CCCC3)CC3CCCCC31N=2` (stereo unspecified): the IC50 is, setting by setting: (WT cells) 3.41 µM; under setting [1], 7.81 µM.

In the case of `CCOC(=O)N1CCN(C(=O)CN(C)S(=O)(=O)c2ccc3c(c2)C(C)(C)C(=O)N3C)CC1`, the IC50 is, setting by setting: (WT cells) > 25 µM (inactive); under setting [1], greater than 25 µM.

With `CCCCCCCOC(=O)c1nc(Cl)c(Cl)c(N)c1Cl`, the IC50 reads like this: (WT cells) 18.9 µM; under setting [1], greater than 25 µM.

As for `OC(CC1CC12c1ccccc1-c1ncccc12)(c1ccccc1)c1ccccc1` (stereo unspecified), the IC50 (WT cells) was 13.8 µM and the IC50 under setting [1] is greater than 25 µM.

Regarding `Fc1ccc(N2CCN(c3nc(CN4CCOCC4)nc4scc(-c5ccccc5)c34)CC2)cc1`, the IC50 is 19.6 µM (WT cells) and 24 µM under setting [1].

Take `CC(NC(=O)/C(=C/c1ccc(OC(F)F)cc1)c1ccccc1)c1ccccc1` (stereo unspecified): the IC50 by setting is: (WT cells) 11.5 µM; under setting [1], greater than 25 µM.

For the compound `CCN(CC)c1ccc(NC(=O)Nc2ccccc2C(F)(F)F)cc1`, the IC50 reads like this: (WT cells) > 25 µM (inactive); under setting [1], greater than 25 µM.

Regarding `COc1ccc(NC(=S)NC(NC(=O)c2ccc(Cl)cc2Cl)C(Cl)(Cl)Cl)c([N+](=O)[O-])c1` (stereo unspecified), the IC50 runs as follows: (WT cells) 11.4 µM; under setting [1], greater than 25 µM.

Regarding `Cc1[nH]c2ccccc2c1/C=C(\C#N)C(=O)NC(C)c1ccccc1` (stereo unspecified), the IC50 (WT cells) was > 25 µM (inactive) and the IC50 under setting [1] was greater than 25 µM.

For the compound `Cc1cc(NC(=S)N(Cc2cccc(Br)c2)CC2CCC(C(=O)O)CC2)ccc1Cl` (stereo unspecified), the IC50 is 21.9 µM (WT cells) and greater than 25 µM under setting [1].

For the compound `Cc1ncsc1C(=O)Nc1nc2c(s1)CC(C)CC2` (stereo unspecified), the IC50 runs as follows: (WT cells) > 25 µM (inactive); under setting [1], greater than 25 µM.

For `O=Nc1c(O)n(Cc2cccc(Cl)c2)c2ccccc12`, the IC50 was > 25 µM (inactive) (WT cells) and greater than 25 µM under setting [1].

Take `Cc1nc(N2CCCCC2)c2c(-c3cccs3)csc2n1`: the IC50 (WT cells) was 22.4 µM and the IC50 under setting [1] is greater than 25 µM.

As for `COc1ccc(C2CC(c3ccc(Br)cc3)=NN2C(=O)c2cccnc2)cc1` (stereo unspecified), the IC50 by setting is: (WT cells) 18.2 µM; under setting [1], greater than 25 µM.

`Cc1cccc(N(C)C(=S)Oc2ccc3ccccc3c2)c1`: the IC50 reads like this: (WT cells) 8.79 µM; under setting [1], greater than 25 µM.

For the compound `Cc1cc(NCCCn2ccnc2)n2ncc(-c3ccc(Cl)cc3)c2n1`, the IC50 is, setting by setting: (WT cells) 11.1 µM; under setting [1], 17.9 µM.

Turning to `C=CCSc1nnc(NC(=O)COc2ccc3ccccc3c2)s1`, the IC50 runs as follows: (WT cells) > 25 µM (inactive); under setting [1], greater than 25 µM.

In the case of `N=c1c2c(n(Cc3ccc(F)cc3)c3c1CCC3)CCC2`, the concentration for half-maximal inhibition (IC50) (WT cells) is 11.2 µM and the IC50 under setting [1] was greater than 25 µM.

Turning to `CS(=O)(=O)N(CC(=O)NCc1ccc2c(c1)OCO2)c1ccc(Cl)cc1`, the IC50 reads like this: (WT cells) > 25 µM (inactive); under setting [1], greater than 25 µM.

`N#CC1=C(N)C2=CCCC[C@H]2[C@H](c2ccc(Br)cc2)C1(C#N)C#N`: the IC50 is 4.48 µM (WT cells) and 7.07 µM under setting [1].

With `CCc1cc(-c2n[nH]c(=S)n2CC(C)C)cs1`, the IC50 is, setting by setting: (WT cells) > 25 µM (inactive); under setting [1], greater than 25 µM.

Regarding `O=C(CCN1C(=O)/C(=C\c2cccs2)SC1=S)NC1=NCCS1`, the IC50 (WT cells) is 8.36 µM and the half-inhibitory concentration (IC50) under setting [1] was found to be 17.6 µM.

Turning to `O=C(COC(=O)c1ccc([N+](=O)[O-])s1)Nc1ccccc1`, the IC50 runs as follows: (WT cells) 17.7 µM; under setting [1], greater than 25 µM.

For the compound `CCC(C)(C)NC(=O)CN(C(=O)c1snc(C(N)=O)c1N)c1ccc2c(c1)OCCO2`, the IC50 was > 25 µM (inactive) (WT cells) and greater than 25 µM under setting [1].

For `CCS(=O)(=O)Nc1cccc(-c2cc(-c3ccccc3)c3cc(C)ccc3n2)c1`, the IC50 by setting is: (WT cells) 6.46 µM; under setting [1], greater than 25 µM.

With `Cc1cccn2c(=O)c(C=NCc3ccco3)c(Nc3ccc(SC(F)F)cc3)nc12`, the IC50 reads like this: (WT cells) > 25 µM (inactive); under setting [1], greater than 25 µM.
